Experimental findings from ChEMBL document CHEMBL1150266, “Design and synthesis of conformationally constrained glucagon-like peptide-1 derivatives with increased plasma stability and prolonged in vivo activity” (J Med Chem, 2008) are described below.

The nature of series [1]: (§1) Stability in human plasma at 1000 ng/mL at 37 degC. The series is classed as ADME, cell-free.
The target of series [2] is T1, Glucagon-like peptide 1 receptor (Homo sapiens, UniProt P43220). Briefly: Displacement of [125I]GLP1 from human GLP1R expressed in CHOK1 cells. The series is classed as cell-based, CHO-K1.
T1 sequence (P43220 whole entry): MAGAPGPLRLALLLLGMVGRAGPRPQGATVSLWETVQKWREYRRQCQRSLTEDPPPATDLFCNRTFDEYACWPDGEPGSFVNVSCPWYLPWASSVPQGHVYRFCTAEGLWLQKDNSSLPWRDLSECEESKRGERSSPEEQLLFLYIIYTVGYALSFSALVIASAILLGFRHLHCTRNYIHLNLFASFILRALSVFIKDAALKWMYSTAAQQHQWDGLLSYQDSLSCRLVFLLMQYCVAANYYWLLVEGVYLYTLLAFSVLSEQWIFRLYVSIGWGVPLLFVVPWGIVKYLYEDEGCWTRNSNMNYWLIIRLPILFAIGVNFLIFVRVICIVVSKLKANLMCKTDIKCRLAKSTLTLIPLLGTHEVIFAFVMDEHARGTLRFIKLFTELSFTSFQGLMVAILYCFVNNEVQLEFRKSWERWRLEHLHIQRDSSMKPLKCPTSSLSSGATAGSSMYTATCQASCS
In series [3] the target is T1, Glucagon-like peptide 1 receptor. Briefly: Agonist activity at human GLP1R expressed in CHO cells assessed as increase in cAMP level by cAMP-response element/luciferase activation assay. The series is classed as functional, cell-based. Background: Changes in cAMP serve as a functional read-out for many G protein-coupled receptors.
A further series concerns Plasma. The description is as §1. Type of series: ADME, cell-free.
Series [4] in a line: Stability in human plasma at 1000 ng/mL at 37 degC after 5 hrs. The series is classed as ADME, cell-free. Particulars: read-out: Stability.

pEC50, pIC50: −log10 of the molar value.

In turn, `CC[C@H](C)[C@H](NC(=O)[C@H](Cc1ccccc1)NC(=O)[C@H](CCC(=O)O)NC(=O)[C@H](CCCCN)NC(=O)[C@H](C)NC(=O)[C@H](C)NC(=O)[C@H](CCC(N)=O)NC(=O)CNC(=O)[C@H](CCC(=O)O)NC(=O)[C@H](CC(C)C)NC(=O)[C@H](Cc1ccc(O)cc1)NC(=O)[C@H](CO)NC(=O)[C@H](CO)NC(=O)[C@@H](NC(=O)[C@H](CC(=O)O)NC(=O)[C@H](CO)NC(=O)[C@@H](NC(=O)[C@H](Cc1ccccc1)NC(=O)[C@@H](NC(=O)CNC(=O)[C@H](CCC(=O)O)NC(=O)[C@H](C)NC(=O)[C@@H](N)Cc1cnc[nH]1)[C@@H](C)O)[C@@H](C)O)C(C)C)C(=O)N[C@@H](C)C(=O)N[C@@H](Cc1c[nH]c2ccccc12)C(=O)N[C@@H](CC(C)C)C(=O)N[C@H](C(=O)N[C@@H](CCCCN)C(=O)NCC(=O)N[C@@H](CCCNC(=N)N)C(=O)NCC(N)=O)C(C)C` yielded a half-life at 1000 ng/mL in series [1] of 0.5 h.

In series [2], `CC[C@H](C)[C@H](NC(=O)[C@H](Cc1ccccc1)NC(=O)[C@H](CCC(=O)O)NC(=O)[C@@H]1CCCCNC(=O)CC[C@H](NC(=O)[C@H](CCC(=O)O)NC(=O)[C@H](CC(C)C)NC(=O)[C@H](Cc2ccc(O)cc2)NC(=O)[C@H](CO)NC(=O)[C@H](CO)NC(=O)[C@@H](NC(=O)[C@H](CC(=O)O)NC(=O)[C@H](CO)NC(=O)[C@@H](NC(=O)[C@H](Cc2ccccc2)NC(=O)[C@@H](NC(=O)CNC(=O)[C@H](CCC(=O)O)NC(=O)CNC(=O)[C@@H](N)Cc2c[nH]cn2)[C@@H](C)O)[C@@H](C)O)C(C)C)C(=O)N[C@@H](CCC(N)=O)C(=O)N[C@@H](C)C(=O)N[C@@H](C)C(=O)N1)C(=O)N[C@@H](C)C(=O)N[C@@H](Cc1c[nH]c2ccccc12)C(=O)N[C@@H](CC(C)C)C(=O)N[C@H](C(=O)N[C@@H](CCCCN)C(=O)NCC(=O)N[C@@H](CCCNC(=N)N)C(=O)NCC(N)=O)C(C)C` showed a pIC50 of 8.68. Besides, in series [3], the pEC50 was 11.00. In the series on Plasma, the Stability entry is listed as “Stable”. Further, the remaining at 5 h, 1000 ng/mL in series [4] amounted to 75%.

`CC[C@H](C)[C@H](NC(=O)[C@H](Cc1ccccc1)NC(=O)[C@H](CCC(=O)O)NC(=O)[C@H](CCCCN)NC(=O)[C@H](C)NC(=O)[C@H](C)NC(=O)[C@H](CCC(N)=O)NC(=O)CNC(=O)[C@H](CCC(=O)O)NC(=O)[C@H](CC(C)C)NC(=O)[C@H](Cc1ccc(O)cc1)NC(=O)[C@H](CO)NC(=O)[C@H](CO)NC(=O)[C@@H](NC(=O)[C@H](CC(=O)O)NC(=O)[C@H](CO)NC(=O)[C@@H](NC(=O)[C@H](Cc1ccccc1)NC(=O)[C@@H](NC(=O)CNC(=O)[C@H](CCC(=O)O)NC(=O)CNC(=O)[C@@H](N)Cc1cnc[nH]1)[C@@H](C)O)[C@@H](C)O)C(C)C)C(=O)N[C@@H](C)C(=O)N[C@@H](Cc1c[nH]c2ccccc12)C(=O)N[C@@H](CC(C)C)C(=O)N[C@H](C(=O)N[C@@H](CCCCN)C(=O)NCC(=O)N[C@@H](CCCNC(=N)N)C(=O)NCC(=O)O)C(C)C` returned a half-life at 1000 ng/mL in series [1] of 5 h.

A word on the half-life: it is how long it takes for the measured level to halve. A lower half-life goes with fast loss. As usually defined, the pIC50 is the negative decadic logarithm of the IC50, by convention in mol/L. Lower therefore signals a large IC50. By pEC50 is commonly meant the negative decadic logarithm of the EC50, by convention in mol/L.
